The values below come from article PMC6704344, “The Preclinical Pharmacological Study of a Novel Long-Acting Local Anesthetic, a Fixed-Dose Combination of QX-OH/Levobupivacaine, in Rats” (Frontiers in Pharmacology, 2019).

As a reminder, the Cmax is the highest concentration seen after dosing. For orientation: Vd/F means the apparent distribution volume after extravascular dosing. What is called half-life is the time in which the quantity being followed falls by half. A higher half-life goes with slow decline. For orientation: CL/F means the apparent clearance, not corrected for the fraction that reaches the circulation. As usually defined, the AUC(0-inf) is the area under the concentration-time curve extrapolated to infinity. The low end stands for low exposure, the high end for high exposure. In general, AUC(0-t) refers to exposure summed from dosing to a finite time, without extrapolation to infinity. The low end stands for low exposure, the high end for high exposure.

On the set-up of series [1]: method as in Yu et al., 2002. The settings on record: subcutaneous administration; ref Yu et al., 2002; cited from earlier work.
The test system of another series is RAW, N1E and CHO cells. The settings on record: cited from earlier work.
Series [2] can be described thus: Drug concentration and pharmacokinetics in muscle near the injection site after sciatic nerve block in rats. In kind it is in vivo, rat. Here is the method: (§1) In brief, rats were anesthetized by inhaling 1%–2% isoflurane mixed with oxygen through an inhouse-made mask. Then, the rats were placed at right lateral position and inserted vertically using a 23-gauge injector at the middle of the line from the greater trochanter to ischial tuberosity ([Binshtok et al., 2007]; [Zhang et al., 2017b]). Once the bone has been contacted, 200 μl drug was injected.
(§2) On the basis of previous pharmacodynamic studies, nine sampling points were used for determining drug concentration in muscle and sciatic nerve for QX-OH and LL-1: 0.5, 1, 2, 3, 4, 5, 6, 7, and 8 h; four sampling points for Levo-Bupi: 0.5, 1, 2, and 3 h. Due to the destructive sampling, five male rats were sacrificed at each time point for collecting muscle and sciatic nerve nearby the injection site. Then all samples were weighed and frozen at -80°C.
(§3) According to previous study ([Zhang et al., 2017a]), plasma samples were deproteinized by acetonitrile solution with ropivacaine hydrochloride (internal standard, IS). The mixture was centrifuged for 10 min at 28,621 × g in 4°C after fully vortexed. The supernatant was diluted with ultrapure water (50:50, v/v). Muscle and sciatic nerve samples were homogenized by gentleMACS™ Dissociator (Miltenyi Biotec, Germany) and tissue grinder (model SCIENTZ-48, Ningbo, China), respectively. Tissue homogenate was mixed with IS solution by vortex and then centrifuged for 10 min at 28,621 × g. Then, the supernatant was diluted with ultrapure water at equal volume ratio. LC-MS/MS analysis system consist of Agilent 6460 triple quadrupole mass spectrometer and electrospray ionization source (Agilent Technologies, CA, USA). Chromatographic separation was adopted by Agilent Extend C18 column (100 mm × 3 mm, 3.5 μm) at 35°C with isocratic elution containing 0.05% formic acid and acetonitrile at the volume ratio of 78:22 at a flow rate of 0.3 ml/min. Mass spectrometry conditions were in a positive ionization mode: the sheath gas flow rate, 11.0 L/min; sheath gas heater temperature, 300°C; nebulizer pressure, 45 psi; capillary voltage, 3,500 V. MassHunter software was used to analyze data (B.04.00 Build 4.0.479.0, Agilent Technologies, USA).
(§4) The parameters of pharmacokinetics were analyzed by DAS® (Drug and Statistics, version 3.2.1, China) using noncompartmental model. In this study, the following pharmacokinetic parameters were calculated: the value of maximum concentration (Cmax) and the time to acquire (Tmax); the elimination half-life (t1/2); area under curve (AUC) from zero to the last time point (AUC0–last) and from zero to infinity (AUC0–∞); clearance (CL/F), and volume of distribution (Vd/F).

A short description of series [3]: Drug concentration and pharmacokinetics in sciatic nerve after sciatic nerve block in rats. The format is in vivo, rat. On the procedure:
as §1, §2, §3, §4

A further series relates to HT22 cells. Nature of the series: Cellular drug uptake assay. In kind it is cell-based, mouse. The settings on record: LL-1 vs 10 mM Levo-Bupi alone, 10 min incubation, n = 10, p = 0.067. Here is the method: HT22 cell line, a sub-line derived from HT4 cells that were originally immortalized from primary mouse hippocampal neuron, were a generous gift from Dr. Huang (West China Second University Hospital, Sichuan University, China). HT22 cells were cultured in DMEM with high glucose (HyClone, Utah, USA) supplemented with 10% fetal bovine serum (Gibco, New York, USA) and 1% penicillin and streptomycin (HyClone, Utah, USA) in a humidified incubator with 5% CO2 and 95% air at 37°C.
According to previous study ([Brenneis et al., 2014]), cells were plated on 35 mm 6-well dishes (2.5 × 10^5 per well). When cells reached confluence at 70%–80%, the medium was removed, and plates washed with PBS (NaCl, 137.0 mmol/L; KCl, 2.7 mmol/L; KH2PO4, 1.5 mmol/L and Na2HPO4·12H2O, 8.0 mmol/L; pH = 7.4). Thirty wells were divided to incubate with LL-1, 35 mM QX-OH and 10 mM Levo-Bupi for 10 min, and then washed four times with PBS. Cells were translated to polypropylene tube. The cell suspensions were centrifuged at 72 × g and the supernatants were removed by pipette. All samples were frozen at -80°C before testing. Samples were homogenized with 100 µL of saline using a tissue grinder. After mixing 50 μl homogenate, 50 μl acetonitrile, and 10 μl IS, then the mixture was centrifuged for 10 min at 28,621 × g, and the supernatant was injected for analysis.

Series [4] in a line: Plasma pharmacokinetics after sciatic nerve block in rats. The format is in vivo, rat. The settings on record: for Tmax / AUC(0-inf) / AUC(0-t) / Cmax / Vd/F / half-life / CL/F: plasma.
From the text: In brief, rats were anesthetized by inhaling 1%–2% isoflurane mixed with oxygen through an inhouse-made mask. Then, the rats were placed at right lateral position and inserted vertically using a 23-gauge injector at the middle of the line from the greater trochanter to ischial tuberosity ([Binshtok et al., 2007]; [Zhang et al., 2017b]).
According to the China Food and Drug Administration guidance for preclinical pharmacokinetic study, there should be more than three sampling points adjacent to the time to reach the maximum concentration. […] Thus, to obtain an accurate value of the maximum concentration of Levo-Bupi, we added another time point at 0.33 h. […] Blood samples were maintained in heparinized polypropylene tube separately and then centrifuged at 877 × g for 10 min to gain plasma within 1 h. All the samples were kept at -80°C.
as §3, §4

Series [5] relates to frog sciatic nerve fibers. Nature of the series: Compound action potentials (CAPs) from frog sciatic nerve fibers. As to conditions: LL-1, 35 mM QX-OH, 10 mM Levo-Bupi. From the text:
According to previous published researches ([Matsushita et al., 2013]; [Ohtsubo et al., 2015]). Nine of frogs were decapitated and then pithed. Then, the sciatic nerve was dissected from the lumbar plexus to the knee. The two ends of isolated sciatic nerves were carefully tied to the wires by threads and placed in Ringer solution (NaCl, 115.5 mmol/L; KCl, 2.0 mmol/L; CaCl2, 1.8 mmol/L; Na2HPO4, 1.3 mmol/L and NaH2PO4, 0.7 mmol/L; pH = 7.4).
The compound action potentials (CAPs) from frog sciatic nerve fibers was recorded by the biological function experiment system (BL-420F, Chengdu Techman Software, China). All practices were carried out at room temperature. The sciatic nerve was loosely placed in three platinum wires and then CAPs were recorded in air using a preamplifier. In this system, two of the platinum wires were used to record CAPs, and the other one was for stimulation. The parameters of stimulation were set as follows: intensity, 3 V; frequency, 1 Hz; rectangular pulses, 0.1 ms. The procedure should be performed quickly in order to avoid the nerve dry. The time of measurement should be less than 2 min. […] In this study, we compared the amplitude of CAPs after using drugs with baseline to present the degree of inhibition from frog sciatic nerve, and which was analyzed using the following equation: CAPs amplitude (%) = CAPs measurement/CAPs baseline × 100%.

Details of series [6]: method as in Corvetto et al., 2012. The settings on record: transversus abdominis plane block; ref Corvetto et al., 2012; cited from earlier work.
The mark [7] stands for this setting: male, rat, muscle near the injection site, muscle, given as LL-1, sciatic nerve block, n = 5 per time point, mean ± SEM.
The mark [8] stands for this setting: muscle, given as LL-1, sciatic nerve block, n = 5 per time point, mean ± SEM.
Where [9] appears, read: male, rat, sciatic nerve, given as LL-1, sciatic nerve block, n = 5 per time point, mean ± SEM.
Where [10] appears, read: sciatic nerve, given as LL-1, sciatic nerve block, n = 5 per time point, mean ± SEM.
The mark [11] stands for this setting: both sexes, rat, 200 μl, Levobupivacaine alone (single drug), sciatic nerve block, mean ± SEM.
Setting [12] is: both sexes, rat, given as LL-1, sciatic nerve block, n = 10, mean ± SEM.

`CCCCN1CCCCC1C(=O)Nc1c(C)cccc1C` (stereo not drawn) [bupivacaine]: in series [1], the “time at which Cmax was reached” value was 0.5 h.
As to `CC[N+](CC)(CC)CC(=O)Nc1c(C)cccc1C.[Br-]` [QX-314], the “cellular uptake of QX-314 in presence of bupivacaine” value in the series on RAW, N1E and CHO cells was “enhanced the cellular uptake”.
Take `CCCCN1CCCC[C@H]1C(=O)Nc1c(C)cccc1C` [Levobupivacaine, levobupivacaine]: the “increase of concentration in muscle, LL-1 vs single drug” value in series [2] (at the same time points) was in the range of 2 to 15 times. Also, the Tmax in series [2] (male, rat, muscle near the injection site, muscle, given as LL-1, sciatic nerve block, n = 5 per time point) turned out to be 0.5 h; in series [3] (male, rat, sciatic nerve, given as LL-1, sciatic nerve block, n = 5 per time point) it was 0.5 h; in series [4] (Sprague-Dawley, 200 μl, Levo-Bupi as a single drug, rat sciatic nerve block, preliminary experiment, read-out: time to maximum concentration), 0.5 h; in series [4] (both sexes, rat, 200 μl, Levobupivacaine alone (single drug), sciatic nerve block, mean ± SEM, read-out: Tmax), 1.07 ± 0.16 h; in series [4] (both sexes, rat, given as LL-1, sciatic nerve block, n = 10, mean ± SEM, read-out: Tmax), 4.11 ± 0.39 h; in series [4] (rat, Levo-Bupi in combination with QX-314 (35 mM/10 mM), sciatic nerve block, n = 10, read-out: Tmax) it was 4 h. The Cmax worked out at 256000 ± 28500 ng/g in series [2] (setting [7]); 430000 ± 48600 ng/g in series [3] (setting [9]); 142 ± 13 ng/mL in series [4] (setting [11]); 114 ± 10.2 ng/mL in series [4] (both sexes, rat, given as LL-1 (35 mM QX-OH/10 mM Levo-Bupi), 200 μl, sciatic nerve block, n = 10, mean ± SEM). Also, the Vd/F in series [2] (setting [7]) worked out at 3.01 ± 1.21 L; in series [3] (setting [9]) it was 1.23 ± 0.8 L; in series [4] (setting [11]), 4.81 ± 0.5 L; in series [4] (setting [12]), 3.81 ± 0.7 L. Further, the half-life in series [2] (setting [7]) was 1.38 ± 0.6 h; in series [3] (setting [9]), 1.28 ± 0.74 h; in series [4] (setting [11]), 2.61 ± 0.31 h; in series [4] (setting [12]), 4.89 ± 1.77 h. The “AUC0–t” value was found to be 417.58 ± 43.46 µg·h/g in series [2] (setting [8]) and 935.82 ± 74.35 µg·h/g in series [3] (setting [10]). Besides, the “AUC0–∞” value in series [2] (setting [8]) was 417.86 ± 43.49 µg·h/g; in series [3] (setting [10]) it was 935.88 ± 74.39 µg·h/g. The CL/F in series [2] (setting [8]) is listed as 1.59 ± 0.17 L/h; in series [3] (setting [10]), 0.70 ± 0.05 L/h; in series [4] (Levobupivacaine alone (single drug), sciatic nerve block, mean ± SEM), 1.32 ± 0.08 L/h; in series [4] (given as LL-1, sciatic nerve block, n = 10, mean ± SEM), 0.78 ± 0.10 L/h. The “increase of concentration in sciatic nerve, LL-1 vs single drug” value in series [3] (at the same time points) lay within 1.5 to 24 times. In addition, in the series with HT22 cells, the “cellular uptake of Levo-Bupi” value is reported as “had no difference”. For the same compound, the “change of Tmax in plasma in combination with QX-OH vs alone” value in series [4] (LL-1 vs Levo-Bupi alone, sciatic nerve block) is “increased by four times”. In addition, the AUC(0-inf) came out at 509 ± 31.5 ng·h/mL in series [4] (setting [11]) and 819 ± 78.8 ng·h/mL in series [4] (setting [12]). Moreover, the values for the exposure AUC(0-t) in series [4] (setting [11]) and in series [4] (setting [12]) were 471 ± 23.3 ng·h/mL and 651 ± 47.4 ng·h/mL, respectively. The “soak time required to block CAPs” value in series [5] (n = 6, mean ± SEM) came out at 14.17 ± 2.01 min. Besides, in series [5] (within the first 5 min of soaking), the “CAPs amplitude (% of baseline)” value is listed as 34%. For the same compound, the “change of Tmax on combining with epinephrine” value in series [6] is recorded as “doubled”.
